“And” between values parts separate entries of the source, which are not always exact repeats. Identical values can stand only once. Inconclusive results and toxic doses are left out. Rule for the calls: active = survival T/C of 150% or more; inactive = T/C below 125% in these data.
System: CD2F1 mice, L1210 leukemia ip, survival T/C
Test: NCI In Vivo Anticancer Drug Screen. Data for tumor model L1210 Leukemia (intraperitoneal) in CD2F1 (CDF1) mice
Details: higher = longer survival
Procedure, shortened: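 Implant tumor; dose compound or vehicle; measure endpoint in both groups; report treated divided by control.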

[1] = endpoint: mean survival time, dose: 100.0 mg/kg/injection, schedule: Q04DX003 (ip), vehicle: saline with Tween-80
[2] = endpoint: mean survival time, dose: 200.0 mg/kg/injection, schedule: Q04DX003 (ip), vehicle: saline with Tween-80
[3] = endpoint: mean survival time, dose: 100.0 mg/kg/injection, schedule: Q01DX009 (ip), vehicle: saline with Tween-80
[4] = endpoint: mean survival time, dose: 200.0 mg/kg/injection, schedule: Q01DX009 (ip), vehicle: saline with Tween-80
[5] = endpoint: mean survival time, dose: 400.0 mg/kg/injection, schedule: Q01DX009 (ip), vehicle: saline with Tween-80

Measured: T/C

CC(=O)OCC1OC(n2nc(C#N)c(C#N)n2)C(OC(C)=O)C1OC(C)=O (stereo not drawn)
inactive: endpoint: mean survival time, dose: 12.5 mg/kg/injection, schedule: Q01DX005 (ip), vehicle: distilled water + Tween-80 106 % of control | endpoint: mean survival time, dose: 25.0 mg/kg/injection, schedule: Q01DX005 (ip), vehicle: distilled water + Tween-80 101 % of control and 106 % of control | endpoint: mean survival time, dose: 50.0 mg/kg/injection, schedule: Q01DX005 (ip), vehicle: distilled water + Tween-80 98 % of control and 112 % of control | endpoint: mean survival time, dose: 100.0 mg/kg/injection, schedule: Q01DX005 (ip), vehicle: distilled water + Tween-80 115 % of control and 104 % of control | endpoint: mean survival time, dose: 200.0 mg/kg/injection, schedule: Q01DX005 (ip), vehicle: distilled water + Tween-80 121 % of control and 104 % of control | endpoint: mean survival time, dose: 400.0 mg/kg/injection, schedule: Q01DX005 (ip), vehicle: distilled water + Tween-80 106 % of control

C#CC(C)OCCO (stereo not drawn)
inactive: endpoint: mean survival time, dose: 100.0 mg/kg/injection, schedule: Q04DX003 (ip), vehicle: acetone 104 % of control | endpoint: mean survival time, dose: 200.0 mg/kg/injection, schedule: Q04DX003 (ip), vehicle: acetone 98 % of control | endpoint: mean survival time, dose: 400.0 mg/kg/injection, schedule: Q04DX003 (ip), vehicle: acetone 120 % of control

CCOC(=O)C1C(=O)N(C)C(=O)N1Cc1ccccc1 (stereo not drawn)
inactive: endpoint: mean survival time, dose: 12.5 mg/kg/injection, schedule: Q01DX009 (ip), vehicle: other 93 % of control | endpoint: mean survival time, dose: 25.0 mg/kg/injection, schedule: Q01DX009 (ip), vehicle: other 89 % of control | endpoint: mean survival time, dose: 50.0 mg/kg/injection, schedule: Q01DX009 (ip), vehicle: other 101 % of control | endpoint: mean survival time, dose: 100.0 mg/kg/injection, schedule: Q01DX009 (ip), vehicle: other 101 % of control | endpoint: mean survival time, dose: 200.0 mg/kg/injection, schedule: Q01DX009 (ip), vehicle: other 101 % of control

CCO/C=C1\SC(=S)N(c2cccc(OC)c2)C1=O
inactive: [1] 96 % of control | [2] 106 % of control | endpoint: mean survival time, dose: 400.0 mg/kg/injection, schedule: Q04DX003 (ip), vehicle: saline with Tween-80 101 % of control

COc1ccc(OC)c(NC(=O)Nc2ccc(NC(C)=O)cc2)c1
inactive: [3] 91 % of control | [4] 95 % of control | [5] 91 % of control

CN(CC(=O)O)C(=N)N
inactive: endpoint: mean survival time, dose: 250.0 mg/kg/injection, schedule: Q01DX Z (ip), vehicle: saline 96 % of control | endpoint: mean survival time, dose: 500.0 mg/kg/injection, schedule: Q01DX Z (ip), vehicle: saline 96 % of control | endpoint: mean survival time, dose: 1000.0 mg/kg/injection, schedule: Q01DX Z (ip), vehicle: saline 100 % of control

O=C(O)CC(=O)CC(=O)O.[NH-]C1CCCCC1[NH-].[Pt+2]
inactive: endpoint: median survival time, dose: 3.12 mg/kg/injection, schedule: Q04DX003 (ip), vehicle: saline 101 % of control and 108 % of control | endpoint: median survival time, dose: 6.25 mg/kg/injection, schedule: Q04DX003 (ip), vehicle: saline 114 % of control and 108 % of control | endpoint: median survival time, dose: 12.5 mg/kg/injection, schedule: Q04DX003 (ip), vehicle: saline 118 % of control and 112 % of control | endpoint: median survival time, dose: 25.0 mg/kg/injection, schedule: Q04DX003 (ip), vehicle: saline 122 % of control
active: endpoint: median survival time, dose: 100.0 mg/kg/injection, schedule: Q04DX003 (ip), vehicle: saline 162 % of control and 294 % of control | endpoint: median survival time, dose: 200.0 mg/kg/injection, schedule: Q04DX003 (ip), vehicle: saline 241 % of control

COc1cc2ccc(CC(=S)N3CCOCC3)cc2cc1OC
inactive: [3] 98 % of control | [1] 104 % of control | [4] 93 % of control | [2] 95 % of control | [5] 96 % of control

COC(=O)c1ccccc1NC(=O)/C=C/C(=O)O
inactive: endpoint: mean survival time, dose: 50.0 mg/kg/injection, schedule: Q01DX009 (ip), vehicle: saline 94 % of control | endpoint: mean survival time, dose: 100.0 mg/kg/injection, schedule: Q01DX009 (ip), vehicle: saline 88 % of control | [1] 98 % of control | endpoint: mean survival time, dose: 200.0 mg/kg/injection, schedule: Q01DX009 (ip), vehicle: saline 90 % of control | [2] 95 % of control

c1ccc(N=C2CCCCC2)cc1
inactive: endpoint: mean survival time, dose: 100.0 mg/kg/injection, schedule: Q01DX001 (ip), vehicle: other 115 % of control | endpoint: mean survival time, dose: 100.0 mg/kg/injection, schedule: Q01DX001 (ip), vehicle: saline + Tween-80 + alcohol 98 % of control | endpoint: mean survival time, dose: 200.0 mg/kg/injection, schedule: Q01DX001 (ip), vehicle: other 93 % of control | endpoint: mean survival time, dose: 200.0 mg/kg/injection, schedule: Q01DX001 (ip), vehicle: saline + Tween-80 + alcohol 102 % of control | endpoint: mean survival time, dose: 400.0 mg/kg/injection, schedule: Q01DX001 (ip), vehicle: other 120 % of control | endpoint: mean survival time, dose: 400.0 mg/kg/injection, schedule: Q01DX001 (ip), vehicle: saline + Tween-80 + alcohol 103 % of control | endpoint: mean survival time, dose: 600.0 mg/kg/injection, schedule: Q01DX001 (ip), vehicle: saline + Tween-80 + alcohol 105 % of control

COC(=O)c1cc(-c2ccc(Cl)cc2)nc2cc(Cl)c(OC)cc12
inactive: endpoint: mean survival time, dose: 100.0 mg/kg/injection, schedule: Q01DX001 (ip), vehicle: saline 92 % of control | endpoint: mean survival time, dose: 200.0 mg/kg/injection, schedule: Q01DX001 (ip), vehicle: saline 87 % of control

Reference: PubChem BioAssay AID256 (DTP/NCI, 2004)
